{
  "source": "ChEMBL document CHEMBL1146427",
  "about": "“Identification of the novel antimicrobial fatty acid (5Z,9Z)-14-methyl-5,9-pentadecadienoic acid in Eunicea succinea” (J Nat Prod, 1997)",
  "key": {"Escherichia coli": {"system": "Escherichia coli", "assay": "Antibacterial activity against Escherichia coli ATCC 25922 after overnight incubation", "type": "functional"}, "Staphylococcus aureus": {"system": "Staphylococcus aureus", "assay": "Antibacterial activity against Staphylococcus aureus ATCC 25923 after overnight incubation", "type": "functional, organism-based"}, "Enterococcus faecalis": {"system": "Enterococcus faecalis", "assay": "Antibacterial activity against Streptococcus faecalis group D ATCC 29212 after overnight incubation", "type": "functional, organism-based"}, "Pseudomonas aeruginosa": {"system": "Pseudomonas aeruginosa", "assay": "Antibacterial activity against Pseudomonas aeruginosa ATCC 27853 after overnight incubation", "type": "functional"}},
  "data": [
    {"smiles": "CC(C)CCC/C=C\\CC/C=C\\CCCC(=O)O", "values": [
      {"measurement": "MIC", "setting": "Escherichia coli", "result": "> 100", "unit": "µg/mL"},
      {"measurement": "IC50", "setting": "Staphylococcus aureus", "result": 36, "unit": "µg/mL"},
      {"measurement": "MIC", "setting": "Staphylococcus aureus", "result": 240, "unit": "µM"},
      {"measurement": "IC50", "setting": "Enterococcus faecalis", "result": "< 10", "unit": "µg/mL"},
      {"measurement": "MIC", "setting": "Enterococcus faecalis", "result": 160, "unit": "µM"},
      {"measurement": "MIC", "setting": "Pseudomonas aeruginosa", "result": "> 100", "unit": "µg/mL"}
    ]}
  ]
}
